The target of this experiment is T1, GAL4-RORγ (GAL4 DBD fused to the ROR gamma ligand-binding domain) (Homo sapiens, UniProt P51449).
T1 construct: expressed in transfected cells; host or cells: HG5LN (HeLa line with GAL4-responsive luciferase reporter)
T1 sequence (P51449 269-508 limits assumed): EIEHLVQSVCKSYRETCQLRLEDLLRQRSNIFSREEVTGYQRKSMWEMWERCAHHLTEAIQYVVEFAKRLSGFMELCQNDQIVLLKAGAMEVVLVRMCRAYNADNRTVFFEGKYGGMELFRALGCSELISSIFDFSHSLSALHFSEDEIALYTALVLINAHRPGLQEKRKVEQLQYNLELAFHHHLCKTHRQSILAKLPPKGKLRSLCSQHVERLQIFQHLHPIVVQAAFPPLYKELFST
Briefly: GAL4-RORγ transactivation (luciferase reporter, HG5LN HeLa line). The class given is cell-based. The following applies: HG5LN HeLa cells, 18 hours incubation, luciferase luminescence, read-out: IC50 hRORg. An excerpt: In the tables described above, the median inhibitory concentrations IC50 for the compounds belonging to formula (I) according to the invention have been given according to the following models:
GAL4-RORγ Transactivation
The RORγ transactivation model was developed from the line HG5LN, which is a HeLa line that stably expresses a luciferase reporter gene controlled by a pentamer of the GAL4 recognition domain of yeast and of a β-globin promoter. The HG5LN line was stably transfected by the DNA-binding domain (DBD) of GAL4 fused to the ROR gamma ligand-binding domain (LBD). Molecules that inhibit the ROR gamma constitutive activity reduce the luciferase expression, thus leading to a reduction in the emitted luminescence.
The cells are seeded in 384-well plates (5000 cells in 45 μL/well of culture medium containing 10% fetal calf serum) and incubated for 4 hours at 37° C., 5% CO2. 5 μL of the test molecules (compounds described in the tables described above) are then added to each well and the plates are incubated for 18 hours at a temperature of 37° C. under 5% of CO2. 20 μL of luciferase substrate (Promega) are added to each well and the luminescence emitted is read by a microplate reader.
The luminescence units (“RLU”) are normalized by positive controls (“POS” containing a saturated concentration of N-(2,2,2-trifluoroethyl)-N-[4-[2,2,2-trifluoro-1-hydroxy-1-(trifluoromethyl)ethyl]phenyl])benzenesulfonamide and negative controls (“NEG” containing DMSO): % inhibition=((RLU−NEG)*100)/(POS−NEG). The IC50 values are calculated from a 4-parameter logistic model using the XLFit software (IDBS).
In general terms: A reporter such as luciferase makes a cellular process visible.
On to `CCc1ccc(N([C@H](C)CC)S(=O)(=O)c2ccc3c(cnn3CC3CCOCC3)c2)cc1` [Compound 2, 1-(tetrahydropyran-4-ylmethyl)-1H-indazole-5-sulfonic acid ((R)-sec-butyl)(4-ethylphenyl)amide], for which the concentration for half-maximal inhibition (IC50) was in the range of 100 to 1000 nM.
In the case of `CCc1ccc(N(C2CC2)S(=O)(=O)c2ccc3c(cnn3CC3CCOCC3)c2)cc1` [Compound 3, 1-(tetrahydropyran-4-ylmethyl)-1H-indazole-5-sulfonic acid cyclopropyl(4-ethylphenyl)amide] it was above 1000 nM; in that of `CCc1ccc(N(CC(C)C)S(=O)(=O)c2ccc3c(Br)nn(C4CCCCO4)c3c2)cc1` (stereo not shown) [Compound 4, 3-bromo-1-(tetrahydropyran-2-yl)-1H-indazole-6-sulfonic acid (4-ethylphenyl)isobutylamide], above 1000 nM.
For the compound `CCc1ccc(N(CC2CCOCC2)S(=O)(=O)c2ccc3c(cnn3CC3CCOCC3)c2)cc1` [Compound 5, 1-(tetrahydropyran-4-ylmethyl)-1H-indazole-5-sulfonic acid (4-ethylphenyl)(tetrahydropyran-4-ylmethyl)amide], the IC50 was above 1000 nM.
In the case of `CCc1ccc(N(CC(C)C)S(=O)(=O)c2ccc3c(cnn3Cc3c(C)noc3C)c2)cc1` [Compound 6, 1-((3,5-dimethylisoxazol-4-yl)methyl)-N-(4-ethylphenyl)-N-isobutyl-1H-indazole-5-sulfonamide] it was 100 to 1000 nM; in that of `CCCN(c1ccc(CC)cc1)S(=O)(=O)c1ccc2c(cnn2CC2CCOCC2)c1` [Compound 8, 1-(tetrahydropyran-4-ylmethyl)-1H-indazole-5-sulfonic acid (4-ethylphenyl)propyl], above 1000 nM; in that of `CCCCN(c1ccc(CC)cc1)S(=O)(=O)c1ccc2c(cnn2CC2CCOCC2)c1` [Compound 9, 1-(tetrahydropyran-4-ylmethyl)-1H-indazole-5-sulfonic acid butyl(4-ethylphenyl)amide], above 1000 nM.
In the case of `CC(C)CN(c1cc(Cl)ccc1F)S(=O)(=O)c1ccc2c(cnn2CC2CCOCC2)c1` [Compound 10, 1-(tetrahydropyran-4-ylmethyl)-1H-indazole-5-sulfonic acid (5-chloro-2-fluorophenyl)isobutylamide], the IC50 is above 1000 nM.
For `Cc1ccc(C)c(N(CC(C)C)S(=O)(=O)c2ccc3c(cnn3CC3CCOCC3)c2)c1` [Compound 11, 1-(tetrahydropyran-4-ylmethyl)-1H-indazole-5-sulfonic acid (2,5-dimethylphenyl)isobutylamide], the IC50 fell in the range of 100 to 1000 nM.
The result for `CCCCc1ccc(N(CC(C)C)S(=O)(=O)c2ccc3c(cnn3CC3CCOCC3)c2)c(C)c1` [Compound 13, 1-(tetrahydropyran-4-ylmethyl)-1H-indazole-5-sulfonic acid (4-butyl-2-methylphenyl)isobutylamide] reads 100 to 1000 nM; that for `CCc1ccc(N(CC(C)C)S(=O)(=O)c2ccc3c(c2)c(CO)nn3CC2CCOCC2)cc1` [Compound 14, 3-hydroxymethyl-1-(tetrahydropyran-4-ylmethyl)-1H-indazole-5-sulfonic acid (4-ethylphenyl)isobutylamide], above 1000 nM.
In the case of `CCc1ccc(N(CC2COC2)S(=O)(=O)c2ccc3c(cnn3CC3CCOCC3)c2)cc1` [Compound 16, 1-(tetrahydropyran-4-ylmethyl)-1H-indazole-5-sulfonic acid (4-ethylphenyl)oxetan-3-ylmethylamide] it was above 1000 nM; in that of `CCc1ccc(N(CC(C)C)S(=O)(=O)c2ccc3c(cnn3C3CCN(C(C)=O)C3)c2)cc1` (stereo not shown) [Compound 17, 1-(1-acetylpyrrolidin-3-yl)-1H-indazole-5-sulfonic acid (4-ethylphenyl)isobutylamide], 100 to 1000 nM; in that of `CCc1ccc(N(CC(C)C)S(=O)(=O)c2ccc3c(c2)c(OCC2CCOCC2)nn3CC2CCOCC2)cc1` [Compound 18, 3-(tetrahydropyran-4-ylmethoxy)-1-(tetrahydropyran-4-ylmethyl)-1H-indazole-5-sulfonic acid (4-ethylphenyl)isobutylamide], above 1000 nM.
Regarding `CCc1ccc(N(CC(C)C)S(=O)(=O)c2ccc3c(cnn3CC3CN(C(C)=O)C3)c2)cc1` [Compound 19], the 50% inhibitory concentration (IC50) was above 1000 nM.
The result for `CCc1ccc(N(CC(C)C)S(=O)(=O)c2ccc3c(cnn3CC3CCN(C(C)=O)C3)c2)cc1` (stereo not shown) [Compound 20, 1-((1-acetylpyrrolidin-3-yl)methyl)-N-(4-ethylphenyl)-N-isobutyl-1H-indazole-5-sulfonamide] reads above 1000 nM; that for `CCc1ccc(N(CC(C)C)S(=O)(=O)c2ccc3c(cnn3CC3CCOC3)c2)cc1` (stereo not shown) [Compound 21, N-(4-ethylphenyl)-N-isobutyl-1-((tetrahydrofuran-3-yl)methyl)-1H-indazole-5-sulfonamide], above 1000 nM.
Regarding `CCc1ccc(N(CC(C)C)S(=O)(=O)c2ccc3c(cnn3CC3CCCOC3)c2)cc1` (stereo not shown) [Compound 22, N-(4-ethylphenyl)-N-isobutyl-1-((tetrahydro-2H-pyran-3-yl)methyl)-1H-indazole-5-sulfonamide], the IC50 is above 1000 nM.
As to `CCc1ccc(N(CC(C)C)S(=O)(=O)c2ccc3c(cnn3Cc3ccccc3)c2)cc1` [Compound 23, 1-benzyl-N-(4-ethylphenyl)-N-isobutyl-1H-indazole-5-sulfonamide], the half-maximal inhibitory concentration (IC50) is above 1000 nM.
On to `CCc1ccc(N(CC2CCC2)S(=O)(=O)c2ccc3c(cnn3CC3CCOCC3)c2)cc1` [Compound 24, N-(cyclobutylmethyl)-N-(4-ethylphenyl)-1-((tetrahydro-2H-pyran-4-yl)methyl)-1H-indazole-5-sulfonamide], for which the half-inhibitory concentration (IC50) is 100 to 1000 nM.
Take `COc1cccc(N(CC(C)C)S(=O)(=O)c2ccc3c(cnn3CC3CCOCC3)c2)c1` [Compound 25, 1-(tetrahydropyran-4-ylmethyl)-1H-indazole-5-sulfonic acid (3-methoxyphenyl)isobutylamide]: the IC50 is above 1000 nM.
For the compound `Cc1cccc(N(CC(C)C)S(=O)(=O)c2ccc3c(cnn3CC3CCOCC3)c2)c1` [Compound 26, 1-(tetrahydropyran-4-ylmethyl)-1H-indazole-5-sulfonic acid (3-methylphenyl)isobutylamide], the half-maximal inhibitory concentration (IC50) was above 1000 nM.
In the case of `Cc1ccc(N(CC(C)C)S(=O)(=O)c2ccc3c(cnn3CC3CCOCC3)c2)c(C)c1` [Compound 27, 1-(tetrahydropyran-4-ylmethyl)-1H-indazole-5-sulfonic acid (2,4-dimethylphenyl)isobutylamide] it was 100 to 1000 nM; in that of `Cc1cc(C)cc(N(CC(C)C)S(=O)(=O)c2ccc3c(cnn3CC3CCOCC3)c2)c1` [Compound 28, 1-(tetrahydropyran-4-ylmethyl)-1H-indazole-5-sulfonic acid (3,5-dimethylphenyl)isobutylamide], above 1000 nM.
The result for `CCc1ccc(N(C(C)C)S(=O)(=O)c2ccc3c(cnn3CC3CCOCC3)c2)cc1` [Compound 29, N-(4-ethylphenyl)-N-isopropyl-1-((tetrahydro-2H-pyran-4-yl)methyl)-1H-indazole-5-sulfonamide] reads above 1000 nM; that for `CCc1ccc(N(C(C)CC)S(=O)(=O)c2ccc3c(cnn3CC3CCOCC3)c2)cc1` (stereo not shown) [Compound 30, 1-(tetrahydropyran-4-ylmethyl)-1H-indazole-5-sulfonic acid sec-butyl(4-ethylphenyl)amide], 100 to 1000 nM; that for `CCc1ccc(N(CC2CC2)S(=O)(=O)c2ccc3c(cnn3CC3CCOCC3)c2)cc1` [Compound 31, N-(cyclopropylmethyl)-N-(4-ethylphenyl)-1-((tetrahydro-2H-pyran-4-yl)methyl)-1H-indazole-5-sulfonamide], above 1000 nM.
Consider `CCc1ccc(N(C2CCCC2)S(=O)(=O)c2ccc3c(cnn3CC3CCOCC3)c2)cc1` [Compound 32, 1-(tetrahydropyran-4-ylmethyl)-1H-indazole-5-sulfonic acid cyclopentyl(4-ethylphenyl)amide], for which the IC50 is below 100 nM.
In the case of `CCc1ccc(N(CC2CCOC2)S(=O)(=O)c2ccc3c(cnn3CC3CCOCC3)c2)cc1` (stereo not shown) [Compound 33, 1-(tetrahydropyran-4-ylmethyl)-1H-indazole-5-sulfonic acid (4-ethylphenyl)(tetrahydrofuran-3-ylmethyl)amide] it was above 1000 nM; in that of `CCc1ccc(N(CC(C)C)S(=O)(=O)c2ccc3[nH]nc(N)c3c2)cc1` [Compound 34, 3-amino-1H-indazole-5-sulfonic acid (4-ethylphenyl)isobutylamide], above 1000 nM; in that of `CCc1ccc(N(CCC(C)C)S(=O)(=O)c2ccc3c(cnn3CC3CCOCC3)c2)cc1` [Compound 35, N-(4-ethylphenyl)-N-isopentyl-1-((tetrahydro-2H-pyran-4-yl)methyl)-1H-indazole-5-sulfonamide], above 1000 nM.

Broadly, the IC50 is the concentration at which inhibition is half-maximal.

Source of the values: patent publication US10752617B2 (GALDERMA RESEARCH & DEVELOPMENT, priority 2014, dated 2020).
